# According to ChEMBL document CHEMBL3817831, “Ionophoric polyphenols selectively bind Cu(2+), display potent antioxidant and anti-amyloidogenic properties, and are non-toxic toward Tetrahymena thermophila” (Bioorg Med Chem, 2016):
# Active and inactive are the calls of the source. The rule behind the calls is not given here.
# Test system: not listed separately
# Assay: Inhibition of Cu2+-induced amyloid beta (1 to 40) fibril aggregation at 100 uM preincubated for 5 mins followed by amyloid beta (1 to 40) addition measured after 18 days by turbidity assay
# Conditions: not given
row,SMILES,inhibition
1,Oc1ccc(CNc2ccccc2O)cc1,Active

# Test system: not listed separately
# Assay: Inhibition of preformed Cu2+-induced amyloid beta (1 to 40) fibril aggregation assessed as remaining fibril aggregates at 100 uM after 4 days at pH 6.60 by thioflavin-T fluorescence assay
# Conditions: not given
row,SMILES,Activity
1,Oc1ccc(/C=C/c2cc(O)cc(O)c2)cc1 [RESVERATROL],239%
2,Oc1ccc(CNc2ccccc2O)cc1,152%

# Molecular target: Amyloid-beta precursor protein (Homo sapiens) (UniProt P05067)
# Assay: Induction of self-induced amyloid beta (1 to 40) (unknown origin) fibril aggregation at 100 uM after 3 days by turbidity assay
# Conditions: not given
# Sequence of Amyloid-beta precursor protein (Homo sapiens) (P05067 whole entry): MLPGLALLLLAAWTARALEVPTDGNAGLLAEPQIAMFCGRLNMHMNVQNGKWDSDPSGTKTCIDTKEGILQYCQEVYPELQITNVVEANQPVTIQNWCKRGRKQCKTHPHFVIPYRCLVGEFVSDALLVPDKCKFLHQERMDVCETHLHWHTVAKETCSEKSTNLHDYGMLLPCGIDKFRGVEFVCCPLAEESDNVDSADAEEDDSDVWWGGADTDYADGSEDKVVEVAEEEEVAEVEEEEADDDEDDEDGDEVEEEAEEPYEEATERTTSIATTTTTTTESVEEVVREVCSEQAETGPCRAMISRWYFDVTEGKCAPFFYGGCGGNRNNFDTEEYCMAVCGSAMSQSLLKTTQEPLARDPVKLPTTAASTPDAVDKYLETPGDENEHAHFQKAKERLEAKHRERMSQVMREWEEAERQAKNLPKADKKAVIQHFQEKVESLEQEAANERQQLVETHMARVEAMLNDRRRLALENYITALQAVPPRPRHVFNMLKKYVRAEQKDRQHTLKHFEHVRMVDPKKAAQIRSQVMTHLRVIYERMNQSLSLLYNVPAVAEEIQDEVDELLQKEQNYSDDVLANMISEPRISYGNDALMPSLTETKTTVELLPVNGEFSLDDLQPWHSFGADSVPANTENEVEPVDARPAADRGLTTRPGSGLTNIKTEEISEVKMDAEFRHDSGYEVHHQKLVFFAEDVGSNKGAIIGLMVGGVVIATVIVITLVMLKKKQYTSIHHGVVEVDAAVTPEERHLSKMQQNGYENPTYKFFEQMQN
row,SMILES,Activity
1,Oc1ccc(/C=C/c2cc(O)cc(O)c2)cc1 [RESVERATROL],Active
2,Oc1ccc(CNc2ccccc2O)cc1,Active

# Test system: not listed separately
# Assay: Ratio of ascorbic acid IC50 to compound IC50 for DPPH free radical scavenging activity
# Conditions: not given
row,SMILES,Ratio IC50
1,Oc1ccc(CNc2ccccc2O)cc1,2

# Test system: not listed separately
# Assay: Inhibition of preformed Cu2+-induced amyloid beta (1 to 40) fibril aggregation assessed as remaining fibril aggregates at 100 uM after 12 days at pH 6.60 by thioflavin-T fluorescence assay
# Conditions: not given
row,SMILES,Activity
1,Oc1ccc(/C=C/c2cc(O)cc(O)c2)cc1 [RESVERATROL],144%
2,Oc1ccc(CNc2ccccc2O)cc1,106%

# Test system: not listed separately
# Assay: Inhibition of Cu2+-induced amyloid beta (1 to 40) fibril aggregation assessed as remaining fibril aggregates at 100 uM preincubated for 5 mins followed by amyloid beta (1 to 40) addition measured after 3 days at pH 6.60 by thioflavin-T fluorescence assay
# Conditions: not given
row,SMILES,Activity
1,Oc1c(I)cc(Cl)c2cccnc12 [CLIOQUINOL],250%
2,Oc1ccc(/C=C/c2cc(O)cc(O)c2)cc1 [RESVERATROL],25.9%
3,Oc1ccc(CNc2ccccc2O)cc1,21.8%

# Test system: not listed separately
# Assay: Ratio of resveratrol IC50 to compound IC50 for DPPH free radical scavenging activity
# Conditions: not given
row,SMILES,Ratio IC50
1,Oc1c(I)cc(Cl)c2cccnc12 [CLIOQUINOL],0.4
2,O=C1O[C@H]([C@@H](O)CO)C(O)=C1O [ASCORBIC ACID],1.4
3,Oc1ccc(CNc2ccccc2O)cc1,2.8

# Test system: not listed separately
# Assay: Binding affinity to Zn2+ using ZnCl2 at 20 uM after 5 mins by spectrophotometry
# Conditions: not given
row,SMILES,Activity
1,Oc1c(I)cc(Cl)c2cccnc12 [CLIOQUINOL],Active
2,Oc1ccc(/C=C/c2cc(O)cc(O)c2)cc1 [RESVERATROL],inactive
3,Oc1ccc(CNc2ccccc2O)cc1,inactive

# Test system: not listed separately
# Assay: Binding affinity to Fe2+ using FeCl2 at 20 uM after 5 mins by spectrophotometry
# Conditions: not given
row,SMILES,Activity
1,Oc1c(I)cc(Cl)c2cccnc12 [CLIOQUINOL],Active
2,Oc1ccc(/C=C/c2cc(O)cc(O)c2)cc1 [RESVERATROL],Active
3,Oc1ccc(CNc2ccccc2O)cc1,inactive

# Test system: not listed separately
# Assay: Inhibition of Cu2+-amyloid beta (1 to 40) catalyzed generation of hydroxyl radical assessed as rate of radical formation per min at 2 equiv preincubated for 1 hr followed by CCA addition measured over 60 mins by CCA based fluorescence assay (reference value: 13 +/- 0.2 a.u.)
# Conditions: not given
row,SMILES,Activity
1,Oc1c(I)cc(Cl)c2cccnc12 [CLIOQUINOL],1.2 a.u.
2,Oc1ccc(/C=C/c2cc(O)cc(O)c2)cc1 [RESVERATROL],11.2 a.u.
3,Oc1ccc(CNc2ccccc2O)cc1,6.8 a.u.

# Test system: not listed separately
# Assay: Ratio of resveratrol IC50 to compound IC50 for AAPH radical scavenging activity
# Conditions: not given
row,SMILES,Ratio IC50
1,Oc1c(I)cc(Cl)c2cccnc12 [CLIOQUINOL],0.2
2,O=C1O[C@H]([C@@H](O)CO)C(O)=C1O [ASCORBIC ACID],0.02
3,Oc1ccc(CNc2ccccc2O)cc1,1.2

# Test system: not listed separately
# Assay: Antioxidant activity assessed as DPPH free radical scavenging activity after 30 mins by spectrophotometry
# Type: physicochemical
# Conditions: not given
row,SMILES,IC50
1,Oc1c(I)cc(Cl)c2cccnc12 [CLIOQUINOL],40.6 µM
2,O=C1O[C@H]([C@@H](O)CO)C(O)=C1O [ASCORBIC ACID],12.8 µM
3,Oc1ccc(/C=C/c2cc(O)cc(O)c2)cc1 [RESVERATROL],17.8 µM
4,Oc1ccc(CNc2ccccc2O)cc1,6.27 µM

# Molecular target: Amyloid-beta precursor protein (Homo sapiens) (UniProt P05067)
# Assay: Inhibition of preformed self-induced amyloid beta (1 to 40) (unknown origin) fibril aggregation at 100 uM after 12 days by turbidity assay relative to control
# Conditions: not given
row,SMILES,inhibition
1,Oc1ccc(CNc2ccccc2O)cc1,Active

# Test system: not listed separately
# Assay: Inhibition of Cu2+-induced amyloid beta (1 to 40) aggregation at 100 uM preincubated for 5 mins followed by amyloid beta (1 to 40) addition measured after 18 days at pH 6.60 by thioflavin-T fluorescence assay
# Conditions: not given
row,SMILES,inhibition
1,Oc1ccc(CNc2ccccc2O)cc1,Active

# Test system: not listed separately
# Assay: Binding affinity to Ca2+ using CaCl2 at 20 uM after 5 mins by spectrophotometry
# Conditions: not given
row,SMILES,Activity
1,Oc1c(I)cc(Cl)c2cccnc12 [CLIOQUINOL],Active
2,Oc1ccc(/C=C/c2cc(O)cc(O)c2)cc1 [RESVERATROL],inactive
3,Oc1ccc(CNc2ccccc2O)cc1,inactive

# Molecular target: Amyloid-beta precursor protein (Homo sapiens) (UniProt P05067)
# Assay: Induction of preformed self-induced amyloid beta (1 to 40) (unknown origin) fibril aggregation at 100 uM after 4 days by turbidity assay
# Conditions: not given
row,SMILES,Activity
1,Oc1ccc(CNc2ccccc2O)cc1,Active

# Test system: not listed separately
# Assay: Induction of preformed Cu2+-induced amyloid beta (1 to 40) fibril aggregation at 100 uM after 4 to 12 days by turbidity assay relative to control
# Conditions: not given
row,SMILES,Activity
1,Oc1c(I)cc(Cl)c2cccnc12 [CLIOQUINOL],Active

# Molecular target: Amyloid-beta precursor protein (Homo sapiens) (UniProt P05067)
# Assay: Inhibition of self-induced amyloid beta (1 to 40) (unknown origin) fibril aggregation assessed as remaining fibril aggregates at 100 uM after 3 days at pH 6.60 by thioflavin-T fluorescence assay
# Conditions: not given
row,SMILES,Activity
1,Oc1c(I)cc(Cl)c2cccnc12 [CLIOQUINOL],120%
2,Oc1ccc(/C=C/c2cc(O)cc(O)c2)cc1 [RESVERATROL],7.48%
3,Oc1ccc(CNc2ccccc2O)cc1,4.34%

# Molecular target: Amyloid-beta precursor protein (Homo sapiens) (UniProt P05067)
# Assay: Inhibition of preformed self-induced amyloid beta (1 to 40) (unknown origin) fibril aggregation assessed as remaining fibril aggregates at 100 uM after 4 days at pH 6.60 by thioflavin-T fluorescence assay
# Conditions: not given
row,SMILES,Activity
1,Oc1c(I)cc(Cl)c2cccnc12 [CLIOQUINOL],170%
2,Oc1ccc(/C=C/c2cc(O)cc(O)c2)cc1 [RESVERATROL],100%
3,Oc1ccc(CNc2ccccc2O)cc1,8.37%

# Molecular target: Amyloid-beta precursor protein (Homo sapiens) (UniProt P05067)
# Assay: Inhibition of self-induced amyloid beta (1 to 40) (unknown origin) fibril aggregation assessed as remaining fibril aggregates at 100 uM after 7 days at pH 6.60 by thioflavin-T fluorescence assay
# Conditions: not given
row,SMILES,Activity
1,Oc1c(I)cc(Cl)c2cccnc12 [CLIOQUINOL],112%
2,Oc1ccc(/C=C/c2cc(O)cc(O)c2)cc1 [RESVERATROL],4.25%
3,Oc1ccc(CNc2ccccc2O)cc1,3.7%

# Test system: not listed separately
# Assay: Toxicity in Tetrahymena thermophila assessed as reduction in cell viability after 48 hrs by MTT assay
# Type: organism-based
# Conditions: Tetrahymena thermophila cells, read-out: LD50
row,SMILES,LC50 at 48 h
1,Oc1c(I)cc(Cl)c2cccnc12 [CLIOQUINOL],240 µM
2,Oc1ccc(/C=C/c2cc(O)cc(O)c2)cc1 [RESVERATROL],274 µM
3,Oc1ccc(CNc2ccccc2O)cc1,211 µM

# Test system: not listed separately
# Assay: Inhibition of Cu2+-amyloid beta (1 to 40) catalyzed generation of hydroxyl radical assessed as 7-hrdroxy-CCA formation at 2 equiv preincubated for 1 hr followed by CCA addition measured over 60 mins by fluorescence assay
# Conditions: not given
row,SMILES,inhibition
1,Oc1c(I)cc(Cl)c2cccnc12 [CLIOQUINOL],87.7%
2,Oc1ccc(/C=C/c2cc(O)cc(O)c2)cc1 [RESVERATROL],9%
3,Oc1ccc(CNc2ccccc2O)cc1,47.3%

# Molecular target: Amyloid-beta precursor protein (Homo sapiens) (UniProt P05067)
# Assay: Inhibition of preformed self-induced amyloid beta (1 to 40) (unknown origin) fibril aggregation assessed as remaining fibril aggregates at 100 uM after 12 days at pH 6.60 by thioflavin-T fluorescence assay
# Conditions: not given
row,SMILES,Activity
1,Oc1c(I)cc(Cl)c2cccnc12 [CLIOQUINOL],310%
2,Oc1ccc(/C=C/c2cc(O)cc(O)c2)cc1 [RESVERATROL],24.1%
3,Oc1ccc(CNc2ccccc2O)cc1,10.1%

# Molecular target: Amyloid-beta precursor protein (Homo sapiens) (UniProt P05067)
# Assay: Inhibition of self-induced amyloid beta (1 to 40) (unknown origin) fibril aggregation at 100 uM after 7 to 18 days by turbidity assay
# Conditions: not given
row,SMILES,inhibition
1,Oc1ccc(CNc2ccccc2O)cc1,Active

# Test system: not listed separately
# Assay: Binding affinity to Mg2+ using MgSO4 at 20 uM after 5 mins by spectrophotometry
# Conditions: not given
row,SMILES,Activity
1,Oc1c(I)cc(Cl)c2cccnc12 [CLIOQUINOL],Active
2,Oc1ccc(/C=C/c2cc(O)cc(O)c2)cc1 [RESVERATROL],inactive
3,Oc1ccc(CNc2ccccc2O)cc1,inactive

# Test system: not listed separately
# Assay: Inhibition of Cu2+-induced amyloid beta (1 to 40) fibril aggregation assessed as remaining fibril aggregates at 100 uM preincubated for 5 mins followed by amyloid beta (1 to 40) addition measured after 7 days at pH 6.60 by thioflavin-T fluorescence assay
# Conditions: not given
row,SMILES,Activity
1,Oc1c(I)cc(Cl)c2cccnc12 [CLIOQUINOL],196%
2,Oc1ccc(/C=C/c2cc(O)cc(O)c2)cc1 [RESVERATROL],16.1%
3,Oc1ccc(CNc2ccccc2O)cc1,11%

# Test system: not listed separately
# Assay: Inhibition of preformed Cu2+-induced amyloid beta (1 to 40) fibril aggregation at 100 uM after 4 to 12 days by turbidity assay relative to control
# Conditions: not given
row,SMILES,inhibition
1,Oc1ccc(/C=C/c2cc(O)cc(O)c2)cc1 [RESVERATROL],inactive
2,Oc1ccc(CNc2ccccc2O)cc1,Active

# Test system: not listed separately
# Assay: Induction of Cu2+-induced amyloid beta (1 to 40) fibril aggregation at 100 uM preincubated for 5 mins followed by amyloid beta (1 to 40) addition measured after 3 to 7 days by turbidity assay
# Conditions: not given
row,SMILES,Activity
1,Oc1ccc(CNc2ccccc2O)cc1,47%

# Test system: not listed separately
# Assay: Binding affinity to Cu2+ using CuCl2 after 5 mins by spectrophotometry
# Conditions: not given
row,SMILES,logKa
1,Oc1c(I)cc(Cl)c2cccnc12 [CLIOQUINOL],15.6
2,Oc1ccc(/C=C/c2cc(O)cc(O)c2)cc1 [RESVERATROL],6.7
3,Oc1ccc(CNc2ccccc2O)cc1,12.8

# Test system: not listed separately
# Assay: Antioxidant activity assessed as AAPH radical scavenging activity preincubated for 30 mins followed by AAPH addition measured after 60 mins by ORAC assay
# Type: physicochemical
# Conditions: not given
row,SMILES,IC50
1,Oc1c(I)cc(Cl)c2cccnc12 [CLIOQUINOL],9.72 µM
2,O=C1O[C@H]([C@@H](O)CO)C(O)=C1O [ASCORBIC ACID],62.2 µM
3,Oc1ccc(/C=C/c2cc(O)cc(O)c2)cc1 [RESVERATROL],1.7 µM
4,Oc1ccc(CNc2ccccc2O)cc1,1.38 µM

# Test system: not listed separately
# Assay: Binding affinity to Cu2+ assessed as compound-metal adduct formation
# Conditions: not given
row,SMILES,logKa
1,Oc1c(I)cc(Cl)c2cccnc12 [CLIOQUINOL],10

# Test system: not listed separately
# Assay: Binding affinity to Cu2+ using CuCl2 at 20 uM after 5 mins by spectrophotometric titration assay
# Conditions: not given
row,SMILES,Activity
1,Oc1ccc(CNc2ccccc2O)cc1,Active

# Test system: not listed separately
# Assay: Binding affinity to Mn2+ using MnCl2 at 20 uM after 5 mins by spectrophotometry
# Conditions: not given
row,SMILES,Activity
1,Oc1c(I)cc(Cl)c2cccnc12 [CLIOQUINOL],Active
2,Oc1ccc(/C=C/c2cc(O)cc(O)c2)cc1 [RESVERATROL],inactive
3,Oc1ccc(CNc2ccccc2O)cc1,inactive

# Molecular target: Amyloid-beta precursor protein (Homo sapiens) (UniProt P05067)
# Assay: Binding affinity to amyloid beta (1 to 40) (unknown origin) by tyrosine fluorimetric titration assay
# Conditions: not given
row,SMILES,Ka
1,Oc1c(I)cc(Cl)c2cccnc12 [CLIOQUINOL],3.69 ×10⁵ /M
2,Oc1ccc(/C=C/c2cc(O)cc(O)c2)cc1 [RESVERATROL],1.65 ×10⁵ /M
3,Oc1ccc(CNc2ccccc2O)cc1,3.27 ×10⁵ /M
